In this test the target is T1, human capsaicin receptor (Homo sapiens, UniProt Q8NER1).
T1 construct: transfected with the pBK-CMV expression construct encoding the full length human capsaicin receptor; expressed in transfected cells
The experiment in a line: Calcium mobilization assay, determination of agonist activity. It counts as cell-based. As to conditions: capsaicin positive control, cells expressing human capsaicin receptor; read-out: approximate EC90 concentration. The procedure: This Example illustrates representative calcium mobilization assays for use in evaluating test compounds for agonist and antagonist activity.
Cells transfected with expression plasmids (as described in Example 4) and thereby expressing human capsaicin receptor are seeded and grown to 70-90% confluency in FALCON black-walled, clear-bottomed 96-well plates (#3904, BECTON-DICKINSON, Franklin Lakes, N.J.). […]
To measure the ability of a test compound to agonize or antagonize a calcium mobilization response in cells expressing capsaicin receptors to capsaicin or other vanilloid agonist, the EC50 of the agonist capsaicin is first determined. […] Capsaicin-induced calcium mobilization is monitored using either FLUOROSKAN ASCENT (Labsystems; Franklin, Mass.) or FLIPR (fluorometric imaging plate reader system; Molecular Devices, Sunnyvale, Calif.) instruments. […] In this equation, y is the maximum fluorescence signal, x is the concentration of the agonist or antagonist (in this case, capsaicin), a is the Emax, b corresponds to the EC50 value and c is the Hill coefficient. […]
The ability of a test compound to act as an agonist of the capsaicin receptor is determined by measuring the fluorescence response of cells expressing capsaicin receptors elicited by the compound as function of compound concentration.
A general note: Calcium flux is commonly read through the fluorescence of an indicator in the cells.

The record followed here is patent US20060100245A1, “Substituted biphenyl-4-carboxylic acid arylamide analogues” (Neurogen Corporation, priority 2002, published 2006).

T1 sequence (Q8NER1 whole entry): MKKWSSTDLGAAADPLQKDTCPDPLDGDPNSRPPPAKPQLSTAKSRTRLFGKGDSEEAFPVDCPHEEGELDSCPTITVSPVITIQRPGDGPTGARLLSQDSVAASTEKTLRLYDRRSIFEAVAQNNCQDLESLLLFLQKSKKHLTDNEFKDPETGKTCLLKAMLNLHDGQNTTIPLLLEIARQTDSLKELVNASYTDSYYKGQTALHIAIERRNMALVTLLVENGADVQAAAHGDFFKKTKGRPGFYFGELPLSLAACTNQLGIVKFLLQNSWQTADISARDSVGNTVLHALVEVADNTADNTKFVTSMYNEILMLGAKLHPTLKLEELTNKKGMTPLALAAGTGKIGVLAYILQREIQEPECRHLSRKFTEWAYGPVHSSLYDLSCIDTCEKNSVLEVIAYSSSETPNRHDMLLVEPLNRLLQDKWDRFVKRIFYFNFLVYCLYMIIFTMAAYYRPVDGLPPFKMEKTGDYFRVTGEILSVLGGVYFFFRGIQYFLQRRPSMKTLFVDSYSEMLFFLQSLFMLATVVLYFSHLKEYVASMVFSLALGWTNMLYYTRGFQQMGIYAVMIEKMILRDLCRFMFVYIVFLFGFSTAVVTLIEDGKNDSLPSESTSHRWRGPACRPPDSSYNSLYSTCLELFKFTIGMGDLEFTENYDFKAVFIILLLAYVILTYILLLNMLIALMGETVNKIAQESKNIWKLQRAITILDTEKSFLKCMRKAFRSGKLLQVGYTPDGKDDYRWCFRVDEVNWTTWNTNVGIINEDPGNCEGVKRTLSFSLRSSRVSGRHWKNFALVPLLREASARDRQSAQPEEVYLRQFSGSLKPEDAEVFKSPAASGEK

For the molecule `COc1cc(CNC(=O)CCCC/C=C/C(C)C)ccc1O` [capsaicin], the EC90 is roughly 100 nM.
